Experiment: Solubility tests on SAHA in aqueous HPβCD solutions by UV spectrophotometry
Format: physicochemical
Conditions: for Concentration: dissolved SAHA in the filtered solution brought to 10 ml, by Lambert and Beer's law with mean ε; for Assorbance (AU): water, one week stirring at room temperature, filtered, brought to 10 ml, read at 240 nm
Procedure: Five aqueous solutions of SAHA in cyclodextrin were prepared, maintaining a constant amount of drug and gradually increasing the cyclodextrin concentraion.
Two mg of SAHA (0.0075 mmol) are weighed in five assay tubes and to each is added 1 ml of a solution of 2-hydroxypropyl-β-cyclodextrin (HPβCD) in double-distilled water; we started with a molar ratio of 1:1 corresponding to 0.0116 g of cyclodextrin, proceeding then with molar ratios of 1:2 corresponding to 0.0232 g, 1:3 corresponding to 0.035 g, 1:4 corresponding to 0.046, up to a final ratio of 1:5, corresponding to 0.058 g of cyclodextrin.
The tubes thus prepared and well sealed are left for one week under stirring in a mechanical stirrer at room temperature.
At the end of this period, the solutions are filtered with a 0.5 µm diameter membrane filter in five 10 ml round-bottomed flasks brought to volume with double-distilled water, and the spectrophotometric readings are taken at 240 nm.
From the mean value of ε calculated previously, and using Lambert and Beer's law, the millimolar concentrations of the five solutions can be calculated, as shown in the table.

O=C(CCCCCCC(=O)Nc1ccccc1)NO [SAHA, suberoylanilide hydroxamic acid]
Concentration (SAHA:HPβCD molar ratio 1:1): 126 µM
Assorbance (AU) (SAHA:HPβCD molar ratio 1:1): 1.6862 AU
Concentration (SAHA:HPβCD molar ratio 1:2): 191 µM
Assorbance (AU) (SAHA:HPβCD molar ratio 1:2): 2,5591 AU
Concentration (SAHA:HPβCD molar ratio 1:3): 196 µM
Assorbance (AU) (SAHA:HPβCD molar ratio 1:3): 2.6196 AU
Concentration (SAHA:HPβCD molar ratio 1:4): 207 µM
Assorbance (AU) (SAHA:HPβCD molar ratio 1:4): 2.7752 AU
Concentration (SAHA:HPβCD molar ratio 1:5): 216 µM
Assorbance (AU) (SAHA:HPβCD molar ratio 1:5): 2.8932 AU
